# In US20100209345A1, “Fluorinated Ligands for Targeting Peripheral Benzodiazepine Receptors” (Australian Nuclear Science & Technology Organisation, priority 2006, published 2010):
# Where two headings read alike, the source gives them in different places.
# Experiments:
# [1] = biological target: T1, peripheral benzodiazepine binding site (Rattus norvegicus, UniProt P16257); assay: In vitro binding, [3H]-PK11195, kidney membrane preparation; conditions: [3H]-PK11195 (2 nM), 4° C., 1 h
# T1 construct: diluted kidney membrane preparation (200 μg); from tissue; host or cells: kidney membrane preparation
# Experimental: Non-specific binding was determined with PK11195 (10 μM).
# Non-specific binding was determined with Flumazenil (20 μM). In both cases, incubations were terminated by rapid filtration through Whatman GF/B glass fibre. Filters were immediately washed 3 times with 5 mL ice-cold 50 mM Tris/HCl at pH 7.4. Filters were counted in a β-scintillation counter (Packard) to measure the amount of bound radioactivity. The IC50 of the compounds for the peripheral benzodiazepine binding site and the central benzodiazepine receptor were calculated using Kell 6 software.
# [2] = biological target: central benzodiazepine receptors; assay: In vitro binding, [3H]-Flumazenil, brain cortex membrane preparation; conditions: for IC50: [3H]-Flumazenil (2 nM), 25° C., 45 min, read-out: CBR IC50
# How it was run: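 Brain cortex membranes bound with [3H]-flumazenil; non-specific binding defined by 20 μM flumazenil. Filtration on GF/B, washes in ice-cold 50 mM Tris/HCl pH 7.4, bound counts by scintillation, IC50 derived from displacement.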
# [3] = LogP HPLC
# [4] = Biodistribution of 18F-labelled tracers in rats; type: in vivo; conditions: SD rats; for Biodistribution: Bone / Biodistribution: Kidney / Biodistribution: Olfactory bulbs / Biodistribution: Adrenals: decay correction not stated
# How it was run: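 Sprague-Dawley rats received 18F tracer, and brain and peripheral tissues were analysed at 15 and 30 min and 1 and 4 h post-injection. For specificity, rats were pretreated 5 min beforehand with PK11195 or Ro 5-4864 (PBR) or flumazenil (CBR), each at 1 mg/kg.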
# [5] = biological target: T2, peripheral benzodiazepine receptors (Rattus norvegicus, UniProt P16257); assay: In vivo blocking / competition of tracer uptake by pre-treatment with PBR and CBR ligands; conditions: rats
# T2 construct: high uptake in the tissues which have known PBR sites; from tissue; host or cells: organs of living SD rats (brain and peripheral tissues), in vivo
# Experimental: The criteria for significance were **p<0.01 (highly significant) and *p<0.05 (significant). No stars implies not statistical difference from normals or controls.
# The biodistribution of PBR132* was undertaken in SD rats and analysis up to 4 h p.i. in the brain and peripheral tissues was performed. The specificity and selectivity of the tracer were assessed by pre-treatment with PBR and Central benzodiazepine receptor (CBR) specific ligands (1 mg/kg) 5 min prior to injection of PBR132*.
# The biodistribution of PBR 147* was performed in SD rats and brain and peripheral tissues were analysised at 15, 30 min, 1, and 4 h p.i. The specificity and selectivity of the tracer was assessed by pre-treatment of the animals with the PBR ligands PK11195 and Ro 5-4864 and with Flumazenil for CBR at 1 mg/kg 5 min prior to injection of PBR 147*
# The biodistribution of PBR102* and PBR111* were performed in SD rats and brain and peripheral tissues analysed at 15, 30 min, 1, and 4 h p.i. The specificity and selectivity of the tracers were assessed by pre-treatment with the PBR ligands PK11195 and Ro 5-4864 and with Flumazenil for CBR at 1 mg/kg 5 min prior to injection of the corresponding tracers.
# The specificity and selectivity of the tracers were assessed by pre-treatment with the PBR ligands PK11195 and Ro 5-4864 and with Flumazenil for CBR at 1 mg/kg 5 min prior to injection of the corresponding tracers.
smiles,measurement,setting,value
"CC(C)(C)c1ccc(-c2nc3ccc(F)nn3c2CNC(=O)c2ccccc2)cc1 [PBR 139, N-((2-(4-tert-butylphenyl)-6-fluoroimidazo[1,2-b]pyridazin-3-yl)methyl)benzamide]",IC50,[1]; read-out: PBR IC50,800 nM
same,IC50,[2],2620 nM
same,chromatographic logP,[3],4.23 ± 0.13
"CN(C(=O)Cc1c(-c2ccc(OCCF)cc2)nc2c(Cl)cc(Cl)cn12)c1ccccc1 [PBR 143, 2-(2-(4-(2-fluoroethoxy)phenyl)-6,8-dichloroimidazo[1,2-a]pyridin-3-yl)-N-methyl-N-phenylacetamide]",IC50,[1]; PBR IC50 (nM),6.4 nM
same,"CBR, % @ 10^−5M","[2]; @ 10^−5M, [3H]-Flumazenil",50% @ 10^−5M
same,chromatographic logP,[3],3.85 ± 0.12
"CN(C(=O)Cc1c(-c2ccc(OCCCF)cc2)nc2c(Cl)cc(Cl)cn12)c1ccccc1 [PBR 147, 2-(2-(4-(3-fluoropropoxy)phenyl)-6,8-dichloroimidazo[1,2-a]pyridin-3-yl)-N-methyl-N-phenylacetamide]",Biodistribution: Bone,[4]; 15 min,1 % ID/g
same,Biodistribution: Kidney,[4]; 15 min,5 % ID/g
same,Biodistribution: Olfactory bulbs,[4]; 15 min,0.66 % ID/g
same,Heart uptake maintained throughout the experiment,[4]; 15 min to 4 h,7%
same,Biodistribution: Adrenals,[4]; 30 min,9 % ID/g
same,Biodistribution: Adrenals,[4]; 4 hours,11 % ID/g
same,Biodistribution: Bone,[4]; 4 hours,2.9 % ID/g
same,Biodistribution: Kidney,[4]; 4 hours,3.6 % ID/g
same,Biodistribution: Olfactory bulbs,[4]; 4 hours,0.26 % ID/g
same,Blood activity level / concentration in the blood over the 4 h study period,[4]; throughout 15 min to 4 h,significantly lower
same,Tracer uptake after pre-treatment with PK 11195,"[5]; PK 11195 1 mg/kg 5 min prior to tracer, PBR-expressing tissues (brain/peripheral organs, adrenals apart)",decreased
same,Tracer uptake in the adrenals after pre-treatment with PK 11195,"[5]; PK 11195 1 mg/kg 5 min prior to tracer, adrenals",increase
same,Tracer uptake after pre-treatment with Ro 5-4864,"[5]; Ro 5-4864 1 mg/kg 5 min prior to tracer, PBR-expressing tissues (brain/peripheral organs, adrenals apart)",decreased
same,Tracer uptake in the adrenals after pre-treatment with Ro 5-4864,"[5]; Ro 5-4864 1 mg/kg 5 min prior to tracer, adrenals",increase
same,Tracer uptake after pre-treatment with flumazenil (central benzodiazepine ligand),"[5]; flumazenil 1 mg/kg 5 min prior to tracer, brain or peripheral organs",no effect
same,IC50,[1]; PBR IC50 (nM),7.4 nM
same,IC50,[2],4090 nM
same,chromatographic logP,[3],4.31 ± 0.13
"CN(C(=O)Cc1c(-c2ccc(OCCF)cc2)nc2ccc(Cl)cn12)c1ccccc1 [PBR 149, 2-(2-(4-(2-fluoroethoxy)phenyl)-6-chloroimidazo[1,2-a]pyridin-3-yl)-N-methyl-N-phenylacetamide]",IC50,[1]; PBR IC50 (nM),4.7 nM
same,IC50,[2],357 nM
same,chromatographic logP,[3],3.57 ± 0.11
